pIC50: −log10 of the molar value.
Key:
Type in all cases: cell-based
NCI-H2122 cells = assay: Anti proliferative activity in NCI-H2122 cells by XTT assay; conditions: Homo sapiens, NCI-H2122, 192 h, H2122 cell line; for pIC50: 8 days (192 hour) incubation; for viability at 30 µM: 8 days
Protocol: Example 79: Determination of Anti Proliferative Activity in NCI-H2122 Cells by XTT Assay
NCI-H2122 cells (ATCC CRL-5985) were plated at 1000 cells/well in 96 well flat clear bottom plates (Corning, Cat. No 3596) using complete RPMI-1640 media. After 24 hours, compounds of present invention were added to cells from 10 mM stocks made in DMSO (Sigma Cat no. D2650). Each concentration of compound was tested in triplicate with DMSO concentration not exceeding a final percentage of 0.3 in the cells. Complete RPMI-1640 media changed at Day 3 (72 hour) and Day 6 (144 hour) along with compounds of current invention. After 8 days (192 hour) of incubation assay terminated using 50 μl of XTT reagent (Invitrogen, Cat. no X6493). XTT reagent was made by dissolving 1 mg/mi XTT in serum free media with addition of 25 μM Phenazine methosulfate (sigma Cat. no P9625). Absorbance readings were taken in spectrophotometer at 465 nm. The data was analysed using graph pad prism software. Positive control (100% survival)=Cells in complete media with 0.3% DMSO; Negative control/blank (0% survival)=Media alone containing 0.3% DMSO.
(§1) The compounds of the present invention were screened in the above mentioned assay and the results are tabulated below.

OCI-Ly10 cells = assay: Anti proliferative activity in OCI-Ly10 cells (CTG luminescence); conditions: for inhibition at 1 µM / inhibition at 10 µM: Homo sapiens, OCI-Ly10, 72 h
Protocol: Example 80: Determination of Anti Proliferative Activity in OCI-Ly10 Cells
OCI-Ly10 cells (UHN Canada) were plated at 7500 cells/well in 96 well flat bottom plates (Corning, Cat. No CLS3904) using complete Iscove's Modified Dulbecco's Medium (IMDM. After 6 hours, compounds from the present invention were added to the cells from 10 mM stocks made in DMSO (Sigma, Cat. No D2650). Each concentration of compound was tested in triplicates with DMSO concentration not exceeding a final percentage of 0.1 in the cells. After 72 hours of incubation in CO2 incubator, CTG (Promega, Cat. No G7572) was added to the wells and Luminescence readings were taken in the plate reader. Percent inhibition in proliferation was calculated using Microsoft Excel software. Positive control (100% survival)=Cells in complete media with 0.1% DMSO; Negative control/blank (0% survival)=Media alone containing 0.1% DMSO.

NCI-H1792 cells = assay: Anti proliferative activity in NCI-H1792 cells by XTT assay; conditions: H1792 cell line; for pIC50: 72 hours incubation
Protocol: Example 78: Determination of Anti Proliferative Activity in NCI-H1792 Cells by XTT Assay
NCI-H1792 cells (ATCC CRL-5895) were plated at 2000 cells/well in 96 well flat clear bottom plates (Corning, Cat. No 3596) using complete RPMI media. After 24 hours, compounds of present invention were added to cells from 20 mM stocks made in DMSO (Sigma Cat no. D2650). Each concentration of compound was tested in triplicate with DMSO concentration not exceeding a final percentage of 0.3 in the cells. After 72 hours of incubation in CO2 incubator, XTT (Invitrogen, Cat. no X6493) was added to the wells. XTT was dissolved in serum free media at 1 mg/ml and absorbance readings were taken in spectrophotometer at 465 nm. The data was analysed using graph pad prism software. Positive control (100% survival)=Cells in complete media with 0.3% DMSO; Negative control/blank (0% survival)=Media alone containing 0.3% DMSO.
as §1

[1] = Homo sapiens, NCI-H1792, 72 h, at 30 μM, 72 hours

Row | Compound | pIC50 (NCI-H2122 cells) | inhibition at 1 µM (OCI-Ly10 cells) [%] | inhibition at 10 µM (OCI-Ly10 cells; at 10 μM) [%] | viability at 30 µM (NCI-H2122 cells) [%] | other results
1 | C=CC(=O)N1CCN(C(=O)NC(C)C#Cc2ccc(Cl)c(NC(=O)C3CC3)c2)CC1 (racemic) [Example 41, 4-acryloyl-N-(4-(4-chloro-3-(cyclopropanecarboxamido)phenyl)but-3-yn-2-yl) piperazine-1-carboxamide] | 4.60 to 5.00 | 0 | 36 | – | –
2 | CC(C#Cc1ccc(Cl)c(Cl)c1)NC(=O)N1CCN(C(=O)/C=C/C(F)(F)F)CC1 (racemic) [Example 42, (E)-N-(4-(3,4-dichlorophenyl)but-3-yn-2-yl)-4-(4,4,4-trifluorobut-2-enoyl) piperazine-1-carboxamide] | > 5.00 | 81 | 62 | 0 | –
3 | C=CC(=O)N1CCN(C(=O)NC(C)C#Cc2ccc(Cl)c(Cl)c2)CC1=O (racemic) [Example 52, 4-acryloyl-N-(4-(3,4-dichlorophenyl)but-3-yn-2-yl)-3-oxopiperazine-1-carboxamide] | 4.60 to 5.00 | 3 | 82 | 78 | –
4 | C=CC(=O)N1CCN(C(=NC#N)NC(C)C#Cc2ccc(Cl)c(Cl)c2)CC1 (racemic) [Example 54, (E)-4-acryloyl-N′-cyano-N-(4-(3,4-dichlorophenyl)but-3-yn-2-yl) piperazine-carboximidamide] | – | 37 | 56 | – | pIC50 (NCI-H1792 cells; Homo sapiens, NCI-H1792, 72 h): > 5.00; viability at 30 µM (NCI-H1792 cells; [1]): 22%
5 | C=CC(=O)N1CCN(C(=O)NC(C)C#Cc2ccc(Cl)c(Cl)c2)CC1 (single isomer, unassigned) [Example 1a, 4-acryloyl-N-(4-(3,4-dichlorophenyl)but-3-yn-2-yl) piperazine-1-carboxamide] | – | – | – | 26 | pIC50 (NCI-H1792 cells; Homo sapiens, NCI-H1792, 72 h): > 5.00; viability at 30 µM (NCI-H1792 cells; [1]): 45%
6 | C=CC(=O)N1CCN(C(=O)NC(C)(C)C#Cc2ccc(Cl)c(Cl)c2)CC1 [Example 3] | – | 12 | 92 | – | pIC50 (NCI-H1792 cells; Homo sapiens, NCI-H1792, 72 h): > 5.00; viability at 30 µM (NCI-H1792 cells; [1]): 3%
7 | C=CC(=O)N1CCN(C(=O)NC(C)C#Cc2ccc(F)c(Cl)c2)CC1 (stereo not drawn) [Example 5] | – | 43 | 77 | – | pIC50 (NCI-H1792 cells; Homo sapiens, NCI-H1792, 72 h): > 5.00; viability at 30 µM (NCI-H1792 cells; [1]): 57%
8 | C=CC(=O)N1CCN(C(=O)NC2(C#Cc3ccc(Cl)c(Cl)c3)CC2)CC1 [Example 23] | > 5.00 | 48 | 67 | 21 | –
9 | C=CC(=O)N1CCN(C(=O)NC2(C#Cc3ccc(Cl)c(Cl)c3)CCCC2)CC1 [Example 24] | > 5.00 | 35 | 68 | – | –
10 | C=CC(=O)N1CCN(C(=O)NC(C)C#Cc2ccc(Oc3ccccc3)c(Cl)c2)CC1 (stereo not drawn) [Example 25] | 4.60 to 5.00 | 3 | 72 | 16 | –
11 | C=CC(=O)N1CC(N2CCN(C(=O)NC(C)C#Cc3ccc(Cl)c(C4(C)CC4)c3)CC2)C1 (stereo not drawn) [Example 29] | > 5.00 | 42 | 90 | – | –
12 | C=CC(=O)N1CCN(C(=O)NC(C)C#Cc2ccc(N(CC)CC)c(Cl)c2)CC1 (stereo not drawn) [Example 31] | 4.60 to 5.00 | – | – | 19 | –
13 | C=CC(=O)N1CCN(C(=O)NC(C)C#Cc2ccc(Cl)c(N(CC)CC)c2)CC1 (stereo not drawn) [Example 32] | 4.60 to 5.00 | – | – | 15 | –
14 | C=CC(=O)N[C@H]1CC[C@@H](NC(=O)NC(C)C#Cc2ccc(Cl)c(Cl)c2)CC1 (stereo partly drawn) [Example 33] | < 4.60 | – | – | – | viability at 30 µM (NCI-H1792 cells; [1]): 54%
15 | C=CC(=O)N1CCN(C(=O)NC2(C#Cc3cccc4ccccc34)CC2)CC1 [Example 35] | – | 24 | 67 | – | –
16 | C#Cc1cc(C#CC2(NC(=O)N3CCN(C(=O)C=C)CC3)CC2)ccc1Cl [Example 36] | – | 39 | 65 | – | –
17 | CC(C#Cc1ccc(Cl)c(Cl)c1)NC(=O)N1CCN(C(=O)/C=C/C(F)(F)F)CC1 (stereo not drawn) [Example 42a, (E)-N-(4-(3,4-dichlorophenyl)but-3-yn-2-yl)-4-(4,4,4-trifluorobut-2-enoyl) piperazine-1-carboxamide] | > 5.00 | – | – | – | –
18 | CC(C)/C=C(\C#N)C(=O)N1CCN(C(=O)NC2(C#Cc3ccc(Cl)c(Cl)c3)CC2)CC1 [Example 45, (E)-4-(2-cyano-4-methylpent-2-enoyl)-N-(1-((3,4-dichlorophenyl)ethynyl)cyclopropyl) piperazine-1-carboxamide] | – | 0 | 44 | – | –
19 | C=CS(=O)(=O)N1CCN(C(=O)NC2(C#Cc3ccc(Cl)c(Cl)c3)CC2)CC1 [Example 51, N-(1-((3,4-dichlorophenyl)ethynyl)cyclopropyl)-4-(vinylsulfonyl) piperazine-1-carboxamide] | – | 3 | 52 | 0 | –
20 | C=CCN(C(=O)C=C)C1CCN(C(=O)NC(C)C#Cc2ccc(Cl)c(Cl)c2)CC1 (stereo not drawn) [Example 58] | – | – | – | 72 | pIC50 (NCI-H1792 cells; Homo sapiens, NCI-H1792, 72 h): < 4.60
21 | C=CC(=O)N1CCC(C(=O)NC(C)C#Cc2ccc(Cl)c(Cl)c2)C1 (stereo not drawn) [Example 71] | – | – | 62 | – | pIC50 (NCI-H1792 cells; Homo sapiens, NCI-H1792, 72 h): 4.60 to 5.00; viability at 30 µM (NCI-H1792 cells; [1]): 26%; % inhibition (at 1 μM) (OCI-Ly10 cells; 72 hours): 9%
22 | C=CC(=O)N1CCC(C(=O)NC(C)C#Cc2ccc(Cl)c(Cl)c2)C1 (stereo not drawn) [Example 72] | – | – | – | – | pIC50 (NCI-H1792 cells): 4.60 to 5.00; % Viability (at 30 μM) (NCI-H1792 cells; at 30 μM, 72 hours): 27%; % inhibition (at 1 μM) (OCI-Ly10 cells; 72 hours): 4%; % inhibition (at 10 μM) (OCI-Ly10 cells; at 10 μM, 72 hours): 55%

More lines, main results first:

Row | pIC50 (NCI-H2122 cells) | Compound | inhibition at 1 µM (OCI-Ly10 cells) [%] | inhibition at 10 µM (OCI-Ly10 cells; at 10 μM) [%] | viability at 30 µM (NCI-H2122 cells) [%] | other results
23 | 4.60 to 5.00 | C=CC(=O)ON=C1CCN(C(=O)NC(C)C#Cc2ccc(Cl)c(Cl)c2)CC1 (stereo not drawn) [Example 53] | – | – | 99 | –
24 | > 5.00 | CC(C#Cc1ccc(Cl)c(Cl)c1)NC(=O)N1CCC(N2C(=O)C=CC2=O)CC1 (stereo not drawn) [Example 59] | 25 | 100 | 0 | –
25 | < 4.60 | CC(C#Cc1ccc(Cl)c(Cl)c1)NC(=O)N1CCN(C(=O)/C(C#N)=C/N(C)C)CC1 (stereo not drawn) [Example 60] | – | – | 90 | –
26 | < 4.60 | CC(C#Cc1ccc(Cl)c(Cl)c1)NC(=O)N1CCN(C(=O)CC#N)CC1 (stereo not drawn) [Example 61] | – | – | 59 | –
27 | 4.60 to 5.00 | CC(C#Cc1ccc(Cl)c(Cl)c1)NC(=O)N1CCC(n2ccnc2)CC1 (stereo not drawn) [Example 62] | – | – | 33 | –
28 | > 5.00 | C=CC(=O)N1CCN(C(=O)NC(C)C#Cc2ccc(C#N)c(C(F)(F)F)c2)CC1 (stereo not drawn) [Example 63] | 49 | 79 | 18 | –
29 | < 4.60 | C=CC(=O)N1CCN(C(=O)NC(C)C#Cc2ccc(F)cc2)CC1 (stereo not drawn) [Example 64] | – | – | 56 | –
30 | > 5.00 | O=C(/C=C/C(F)(F)F)N1CCN(C(=O)NC2(C#Cc3ccc(Cl)c(Cl)c3)CC2)CC1 [Example 66, (E)-N-(1-((3,4-dichlorophenyl)ethynyl)cyclopropyl)-4-(4,4,4-trifluorobut-2-enoyl) piperazine-1-carboxamide] | 75 | 73 | – | –
31 | < 4.60 | C=CC(=O)N1CC(C(=O)N2CCN(C(=O)NC3(C#Cc4ccc(Cl)c(Cl)c4)CC3)CC2)C1 [Example 68, 4-(1-acryloylazetidine-3-carbonyl)-N-(1-((3,4-dichlorophenyl)ethynyl)cyclopropyl) piperazine-1-carboxamide] | – | – | – | –
32 | < 4.60 | C=CC(=O)NC1(C(=O)NC(C)C#Cc2ccc(Cl)c(Cl)c2)CCCC1 (stereo not drawn) [Example 74] | – | – | 60 | –

Reference: patent US11633394B2, “Substituted alkynylene compounds as anticancer agents” (Aurigene Oncology Limited, priority 2018, dated 2023)
